Measured values published in paper PMC5419573, “TRPV1 activation power can switch an action mode for its polypeptide ligands” (PLoS ONE, 2017).
Entries after “also recorded” stand apart in the source; their conditions may differ.

B1: DkTx: the bivalent toxin DkTx from tiger tarantula Ornithoctonus huwena (peptide, UniProt P0CH43 1-79, looked up)
Tau-theraphotoxin-Hs1a: DCAKEGEVCSWGKKCCDLDNFYCPMEFIPHCKKYKPYVPVTTNCAKEGEVCGWGSKCCHGLDCPLAFIPYCEKYRGRND
modifications: Tau-theraphotoxin-Hs1a
notes: the bivalent toxin DkTx from tiger tarantula Ornithoctonus huwena

Assays:
[1] = molecular target: T1, rat TRPV1 (Rattus norvegicus, UniProt O35433); format: cell-based
T1 construct: expressed in transfected cells; host or cells: CHO cells (T-Rex System, Invitrogen; tetracycline-induced)
T1 sequence (O35433 whole entry): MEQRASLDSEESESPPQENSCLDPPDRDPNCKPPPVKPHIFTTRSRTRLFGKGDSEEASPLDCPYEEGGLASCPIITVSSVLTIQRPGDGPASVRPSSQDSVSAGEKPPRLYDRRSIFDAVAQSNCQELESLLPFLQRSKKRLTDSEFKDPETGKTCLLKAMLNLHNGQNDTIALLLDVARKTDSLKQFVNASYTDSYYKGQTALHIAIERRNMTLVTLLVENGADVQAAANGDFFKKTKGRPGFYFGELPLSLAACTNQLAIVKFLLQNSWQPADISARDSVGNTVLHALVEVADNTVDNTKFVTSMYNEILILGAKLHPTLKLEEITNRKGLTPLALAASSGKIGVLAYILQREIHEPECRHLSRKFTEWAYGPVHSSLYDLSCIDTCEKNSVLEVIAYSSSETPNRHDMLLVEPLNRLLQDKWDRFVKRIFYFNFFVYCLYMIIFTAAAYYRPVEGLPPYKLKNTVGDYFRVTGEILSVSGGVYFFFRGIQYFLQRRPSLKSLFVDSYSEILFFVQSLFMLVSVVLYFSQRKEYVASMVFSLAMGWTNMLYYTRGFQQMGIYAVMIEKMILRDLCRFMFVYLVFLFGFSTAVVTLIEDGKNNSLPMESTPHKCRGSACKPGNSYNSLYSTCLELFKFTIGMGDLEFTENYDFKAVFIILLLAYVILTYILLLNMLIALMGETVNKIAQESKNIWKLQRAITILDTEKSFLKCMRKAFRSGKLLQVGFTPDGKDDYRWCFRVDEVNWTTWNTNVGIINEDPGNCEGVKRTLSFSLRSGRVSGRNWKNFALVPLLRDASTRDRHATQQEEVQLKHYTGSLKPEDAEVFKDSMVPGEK
Experimental: Recordings were made by a patch-clamp technique in whole-cell configuration using CHO cells stably expressing rat TRPV1. Whole-cell currents were recorded and digitized by Instru TECH LIH 8+8 data acquisition system (HEKA, Germany) at -80 mV holding voltage using EPC-8 (HEKA, Germany) amplifier, filtered at 5 kHz, sampled at 10kHz and stored. The external solution contained in mM: CaCl2 2.5, KCl 5, NaCl 143, D-glucose 18, HEPES 10, pH 7.35. Patch pipettes (2–5 MΩ resistance) were prepared by puller model P-97 (Sutter Instruments, USA). Pipette solution contained in mM: CsF 100, CsCl 40, NaCl 5, CaCl2 0.5, EGTA 5, HEPES 10, pH 7.2. Series resistance of about 20 MΩ was compensated by 70–80% and monitored during experiments. Drugs were applied using the ALA-VM8 (ALA Scientific Instruments, USA) perfusion system under computer control. All experiments were performed at 22°C.
(§1) All data were expressed as the mean ± standard deviation (SD). Significance of the effect was tested by ANOVA followed by Tukey’s post hoc analysis with the p-value of 0.05.
The cell line stably expressing rat TRPV1 was used for electrophysiological and internal Ca^2+ fluorescent recordings. […] In Fluo-4-based intracellular calcium assay experiments, capsaicin or 2APB were used as channel agonists. […] To take the response rundown in account, the peptide effects were measured relative to the average value of the preceding and subsequent control responses (see S2 Fig).
Fig 1 Action of APHCs on capsaicin-induced TRPV1 currents. […] G, Current–voltage relationship for TRPV1 currents induced by 3 and 0.3 μM capsaicin in control (black and red) and in the presence of 100 nM APHC1 (blue and magenta). […] I, Summary of the polypeptides action (100 nM) on TRPV1 responses activated by different concentrations of capsaicin, n = 9 for all series.

[2] = molecular target: T1, rat TRPV1; format: cell-based; remark: listed apart in the source
Experimental: as §1

[3] = tested on: human TRPV1; details: cited from earlier work
Source text: (§2) Since elaboration of TRPV1 pharmacology has obvious perspectives related to the potential treatment of pain and inflammation, many compounds affecting TRPV1 activation have been characterized. Some TRPV1 ligands have distinct effects on different modes of channel activation (heat, protons or chemical ligands).

[4] = molecular target: T1, rat TRPV1; details: ref [8], [10], [11]; cited from earlier work
Source text: as §2

[5] = tested on: monkey TRPV1; details: ref [10], [11]; cited from earlier work
Source text: as §2

[6] = tested on: TRPV1; set-up: method as in PMID 17093448, PMID 20510930, PMID 26420335, PMID 24061123; details: ref [20], [21], [22], [39]; cited from earlier work
[7] = tested on: mice; details: ref [20], [21], [22]; cited from earlier work
Source text: Small lipophilic drugs can potentially reach their binding sites in different parts of a receptor, which complicates the study of mechanisms of action. Binding sites for membrane-impermeable peptide modulators should be localized at the outside surface of a channel protein. There are a few examples of polypeptides affecting TRPV1 channels.

Molecule	reversal voltage of evoked currents [1]	effect on capsaicin response of rat TRPV1 [4]	effect on heat response of rat TRPV1 [4]	effect on proton response of rat TRPV1 [4]	also measured
NCCOB(c1ccccc1)c1ccccc1 [2APB, 2-aminoethoxydiphenyl borate]	close to zero				Ca2+ influx on agonist application [2]: did not result in a detectable Ca^2+ influx
O=C(/C=C/c1ccc(C(F)(F)F)cc1N1CCCCC1)Nc1cccc2c1C[C@H](O)C2 [AMG8562, (R,E)-N-(2-hydroxy-2,3-dihydro-1H-inden-4-yl)-3-(2-(piperidin-1-yl)-4-(trifluoromethyl)phenyl)-acrylamide]		blocks capsaicin activation	does not affect heat activation	potentiates proton activation	effect on capsaicin activation of human TRPV1 ([3]; ref [11]): blocks both heat and capsaicin activation; effect on heat activation of human TRPV1 ([3]; ref [11]): blocks both heat and capsaicin activation; effect on proton activation of human TRPV1 ([3]; ref [11]): partial antagonist of proton activation
CC(C)(C)c1ccc(CNC(=S)NCc2ccc(NS(C)(=O)=O)c(F)c2)cc1 [JYL-1421]		blocks responses to capsaicin		not to heat or protons	action profile of rat TRPV1 (block of capsaicin, not heat or protons) on human TRPV1 ([3]; ref [10], [11]): could not be shown; action profile of rat TRPV1 (block of capsaicin, not heat or protons) on monkey TRPV1 [5]: could not be shown
COc1cc(CNC(=O)CCCC/C=C/C(C)C)ccc1O [capsaicin]	close to zero				
Oc1cc2c(cc1O)CN(C(=S)NCCc1ccc(Cl)cc1)CCC2 [capsazepine]		heat and capsaicin responses are blocked at low capsazepine concentrations	heat and capsaicin responses are blocked at low capsazepine concentrations	ineffective as an antagonist of proton-induced response	block of capsaicin-evoked currents [1]: reversibly blocked; also recorded: abolished; block of calcium responses to capsaicin [2]: fully blocked; also recorded: abolished
B1					action on TRPV1 [6]: Peptide agonists of TRPV1; effect when injected in mice [7]: cause pain behavior
